{"source": "patent EP0814162A2", "about": "(priority 1996, dated 1997)", "key": {"hla-lacZ fusion": {"test_system": "hla-lacZ fusion", "experiment": "β-galactosidase chemiluminescent reporter assay of the chromosomal hla-lacZ fusion (hla expression)", "format": "cell-based, S. aureus Wood 46-3", "settings": "for influence on hla expression (in words): subinhibitory concentrations of antibiotics"}, "hla mRNA": {"test_system": "hla mRNA", "experiment": "Northern blot analysis with intragenic hla probe", "settings": "0.5 µg/ml methicillin versus without antibiotic"}, "α-toxin": {"test_system": "α-toxin", "settings": "in vitro; cited from earlier work"}, "[1]": {"settings": "mouse model; cited from earlier work"}}}
{"compound": "CC[C@H]1OC(=O)[C@H](C)[C@@H](O[C@H]2C[C@@](C)(OC)[C@@H](O)[C@H](C)O2)[C@H](C)[C@@H](O[C@@H]2O[C@H](C)C[C@H](N(C)C)[C@H]2O)[C@](C)(O)C[C@@H](C)C(=O)[C@H](C)[C@@H](O)[C@]1(C)O", "note": "[Erythromycin]", "values": [{"measurement": "influence on hla expression (in words)", "setting": "hla-lacZ fusion", "result": "repressed"}]}
{"compound": "C[C@@H]1O[C@@H]1P(=O)(O)O", "note": "[Fosfomycin]", "values": [{"measurement": "influence on hla expression (in words)", "setting": "hla-lacZ fusion", "result": "weak stimulatary effect"}]}
{"compound": "COc1cccc(OC)c1C(=O)N[C@@H]1C(=O)N2[C@@H]1SC(C)(C)[C@@H]2C(=O)O", "note": "[Methicillin]", "values": [{"measurement": "amount of hla mRNA detected by Northern hybridization", "setting": "hla mRNA", "result": "greater amount of hla mRNA"}, {"measurement": "increase of the β-galactosidase activity compared to medium without antibiotic", "setting": "hla-lacZ fusion; quarter of the MIC, postexponential phase", "result": "sixfold increase"}, {"measurement": "influence on hla expression (in words)", "setting": "hla-lacZ fusion", "result": "dramatically increased"}]}
{"compound": "[Cl-].[Na+]", "note": "[NaCl, sodium chloride]", "values": [{"measurement": "β-galactosidase production", "setting": "hla-lacZ fusion; 0.8 M NaCl in LB broth, postexponential", "result": 7800, "unit": "RLU"}, {"measurement": "effect on hla expression (in words)", "setting": "hla-lacZ fusion; NaCl above 1.6 M", "result": "inhibitory"}]}
{"compound": "Cc1onc(-c2ccccc2)c1C(=O)N[C@@H]1C(=O)N2[C@@H]1SC(C)(C)[C@@H]2C(=O)O", "note": "[Oxacillin]", "values": [{"measurement": "influence on hla expression (in words)", "setting": "hla-lacZ fusion", "result": "dramatically increased"}]}
{"compound": "COc1cc(Cc2cnc(N)nc2N)cc(OC)c1OC", "note": "[Trimethoprim]", "values": [{"measurement": "influence on hla expression (in words)", "setting": "hla-lacZ fusion", "result": "weak stimulatary effect"}]}
{"compound": "CN[C@H](CC(C)C)C(=O)N[C@H]1C(=O)N[C@@H](CC(N)=O)C(=O)N[C@H]2C(=O)N[C@H]3C(=O)N[C@H](C(=O)N[C@H](C(=O)O)c4cc(O)cc(O)c4-c4cc3ccc4O)[C@H](O)c3ccc(c(Cl)c3)Oc3cc2cc(c3O[C@@H]2O[C@H](CO)[C@@H](O)[C@H](O)[C@H]2O[C@H]2C[C@](C)(N)[C@H](O)[C@H](C)O2)Oc2ccc(cc2Cl)[C@H]1O", "note": "[Vancomycin]", "values": [{"measurement": "influence on hla expression (in words)", "setting": "hla-lacZ fusion", "result": "weak stimulatary effect"}]}
{"compound": "CCOc1ccc2ccccc2c1C(=O)N[C@@H]1C(=O)N2[C@@H]1SC(C)(C)[C@@H]2C(=O)O", "note": "[nafcillin]", "values": [{"measurement": "α-toxin production", "setting": "α-toxin", "result": "induces"}, {"measurement": "lethal activity of broth filtrates", "setting": "[1]", "result": "increases"}]}
